Legend:
[1] = test system: patient-derived ovarian xenograft (PDX) models (OVA2-BUR, CTG-0703, CTG-2213); assay: Anti-tumor efficacy in ovarian PDX models; assay type: in vivo; details: BRCA1 pathogenic mutant ovarian PDX vs BRCA1 WT / benign mutant; azenosertib 60 mg/kg, niraparib 35 mg/kg
Experimental: The OVA2-BUR model has an HRD negative/BRCA1 WT phenotype. Tumor growth inhibition was also measured using BRCA1^Glu1607Ter (pathogenic) mutant and BRCA1^Pro1099Leu (Benign) mutant PDX models.

[2] = test system: SUM149PT TNBC xenograft (BRCA1 splice isoform Δ11q); assay: SUM149PT TNBC xenograft tumor growth inhibition; assay type: in vivo, mice
Experimental: SUM149PT is a TNBC xenograft model harboring a BRCA1 splice isoform (Δ11q) that produces a truncated, partially functional protein which thereby promotes PARP inhibitor resistance. Azenosertib monotherapy and its combination with olaparib or AZD5305 was evaluated in the SUM149PT model in vivo in mice (FIGS. 10A-10B), and Table 12 summarizes the groups and treatments. Single agent treatment with olaparib at 100 mg/kg QD (FIG. 10A) or with the PARP1 selective inhibitor, AZD5305, at 0.1 or 1 mg/kg QD (FIG. 10B) confirmed SUM149PT resistance to PARP inhibitors.

[3] = test system: MDA-MB-436 Nir^R (BRCA reversion) TNBC cell line; assay: In vitro activity (IC50) in niraparib-resistant MDA-MB-436; assay type: cell-based; details: Homo sapiens
Experimental: Cells with BRCA reversion mutations may be considered HRD+due to genome instability (such as TAI, LST, LOH). BRCA reversion mutation is an established mechanism of resistance to both platinum-based chemotherapeutic drugs and PARP inhibitors. In vivo exploration of WEE1 inhibitors (azenosertib, adavosertib) and PARP inhibitors (niraparib, olaparib) was evaluated.
MDA-MB-436 PARP inhibitor-resistant lines were generated by long-term in vitro treatment with a PARP inhibitor that is olaparib (Ola^R) or niraparib (Nir^R).

[4] = test system: HRD+ cells UWB1289, HCC1937, COV362, HCC1569, HCC1395; assay: In vitro cell viability (CellTiter-Glo) in a panel of HRD+ cells; assay type: cell-based; details: HRD+ cells both PARP inhibitor-sensitive and PARP inhibitor-resistant, 5 cell doublings
Experimental: Azenosertib, olaparib and AZD5305 (PARP1-selective inhibitor) were individually tested in vitro in a panel of HRD+ cells as indicated in Table 10. Briefly, cells were seeded in their recommended media at a density of 1,000 cells per well into 96 well plates. After 24 hr, drug treatment was performed and cells were incubated in a 37° C. for 5 cell doublings. Cell viability was measured using CellTiter-Glo (CTG) (Promega) according to the manufacturer's recommendations. Percent viability was calculated as percentage of cell viability relative to DMSO-only vehicle control. Dose-response curves were fit with Graphpad Prism 9 to determine IC50 values.

[5] = test system: HCC1937 PARP inhibitor-resistant TNBC xenograft; assay: HCC1937 TNBC xenograft tumor growth inhibition; assay type: in vivo, mice
Experimental: Anti-tumor activity of azenosertib monotherapy or in combination with olaparib was evaluated in the HCC1937 model in vivo in mice (FIG. 9), and Table 11 summarizes the groups and treatments. […] Treatment with monotherapy olaparib at 100 mg/kg QD confirmed HCC1937 resistance to the PARP inhibitor.

[6] = monotherapy azenosertib 60 mg/kg QD 5:2
[7] = monotherapy azenosertib 80 mg/kg QD 5:2

In the case of `C=CCn1c(=O)c2cnc(Nc3ccc(N4CCN(C)CC4)cc3)nc2n1-c1ccc2c(n1)[C@@](O)(CC)CC2` [Azenosertib, azenosertib], the “tumor growth inhibition in HRD+ model compared to BRCA1 WT or benign BRCA1 mutant models” value [1] is reported as “increased tumor growth inhibition”, the TGI [2, 6] is reported as 82% and the TGI [2, 7] is reported as 91%. For the same compound, the TGI ([2]; monotherapy azenosertib 100 mg/kg QD 5:2) was 101%, the IC50 [3] was 185 nM and the “tumor cell growth (dose response curves)” value [4] was “reduces tumor cell growth”. For the same compound, the tumor growth inhibition [5, 6] was 80% and the tumor growth inhibition [5, 7] was 89%.
